Test results reported in US12600717B2, “Tricyclic compounds as inhibitors of KRAS” (Incyte Corporation, priority 2021, dated 2026).

Tests used:
KRAS G12D = KRAS G12D (Homo sapiens, UniProt P01116, G12D); experiment: GDP-GTP exchange assay (bodipy-GDP/GppNHp, SOS1), KRAS G12D; assay type: biochemical; conditions: bodipy-loaded KRAS G12D 2.5 nM, 4 hours pre-incubation with inhibitor, 2 hours after GppNHp/SOS1; read-out: G12D_exchange IC50
Protocol: (§1) The inhibitor potency of the exemplified compounds was determined in a fluorescence based guanine nucleotide exchange assay, which measures the exchange of bodipy-GDP (fluorescently labeled GDP) for GppNHp (Non-hydrolyzable GTP analog) to generate the active state of KRAS in the presence of SOS1 (guanine nucleotide exchange factor). Inhibitors were serially diluted in DMSO and a volume of 0.1 μL was transferred to the wells of a black low volume 384-well plate. 5 μL/well volume of bodipy-loaded KRAS G12D diluted to 2.5 nM in assay buffer (25 mM Hepes pH 7.5, 50 mM NaCl, 10 mM MgCl2 and 0.01% Brij-35) was added to the plate and pre-incubated with inhibitor for 4 hours at ambient temperature. Appropriate controls (enzyme with no inhibitor or with a G12D inhibitor) were included on the plate. The exchange was initiated by the addition of a 5 μL/well volume containing 1 mM GppNHp and 300 nM SOS1 in assay buffer. The 10 μL/well reaction concentration of the bodipy-loaded KRAS G12D, GppNHp, and SOS1 were 2.5 nM, 500 uM, and 150 nM, respectively. The reaction plates were incubated at ambient temperature for 2 hours, a time estimated for complete GDP-GTP exchange in the absence of inhibitor. For the KRAS G12V mutant, similar guanine nucleotide exchange assays were used with 2.5 nM as final concentration for the bodipy loaded KRAS proteins and 3 hours incubation after adding GppNHp-SOS1 mixture. A cyclic peptide described to selectively bind G12D mutant (Sakamoto et al., BBRC 484.3 (2017), 605-611) or internal compounds with confirmed binding were used as positive controls in the assay plates. Fluorescence intensities were measured on a PheraStar plate reader instrument (BMG Labtech) with excitation at 485 nm and emission at 520 nm.
(§2) Either GraphPad prism or Genedata Screener SmartFit was used to analyze the data. The IC50 values were derived by fitting the data to a four parameter logistic equation producing a sigmoidal dose-response curve with a variable Hill coefficient.
(§3) The symbol “†” indicates IC50≤100 nM, “††” indicates IC50>100 nM but ≤1 μM; and “†††” indicates IC50 is >1 μM but ≤5 μM, “††††” indicates IC50 is >5 μM but ≤10 μM. “NA” indicates IC50 not available.

KRAS G12V = KRAS G12V (Homo sapiens, UniProt P01116, G12V); experiment: GDP-GTP exchange assay (bodipy-GDP/GppNHp, SOS1), KRAS G12V; assay type: biochemical; conditions: bodipy-loaded KRAS G12V 2.5 nM, 3 hours incubation after adding GppNHp-SOS1; read-out: G12V_exchange IC50
KRAS G12V, sequence (P01116 1-188 isoform P01116-2 G12V): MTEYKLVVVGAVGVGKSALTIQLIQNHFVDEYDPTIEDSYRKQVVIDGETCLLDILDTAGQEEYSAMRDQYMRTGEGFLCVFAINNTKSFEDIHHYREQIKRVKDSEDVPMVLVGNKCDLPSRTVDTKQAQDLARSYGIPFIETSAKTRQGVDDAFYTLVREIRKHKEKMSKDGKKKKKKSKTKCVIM
Protocol: as §1, §2, §3

KRAS G12D, sequence (P01116 1-188 isoform P01116-2 G12D): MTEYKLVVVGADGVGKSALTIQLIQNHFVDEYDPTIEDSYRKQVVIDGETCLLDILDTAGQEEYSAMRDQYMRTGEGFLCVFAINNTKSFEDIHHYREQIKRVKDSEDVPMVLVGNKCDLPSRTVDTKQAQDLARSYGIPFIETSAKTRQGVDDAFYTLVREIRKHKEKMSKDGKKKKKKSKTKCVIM

| SMILES | IC50 (KRAS G12D) [nM] | IC50 (KRAS G12V) [nM] |
| --- | --- | --- |
| CN(C)C(=O)CCc1nc2c(N3CC(N(C)C)C3)nc3c(F)c(-c4cc(O)cc5ccccc45)cc(CN4CCC(C#N)C4)c3c2n1C1C2CNC1C2 (stereo not drawn) [Example 16, 3-(1-((endo)2-azabicyclo[2.1.1]hexan-5-yl)-9-((3-cyanopyrrolidin-1-yl)methyl)-4-(3-(dimethylamino)azetidin-1-yl)-6-fluoro-7-(3-hydroxynaphthalen-1-yl)-1H-imidazo[4,5-c]quinolin-2-yl)-N,N-dimethylpropanamide] | 100 to 1000 | 5000 to 10000 |
| C[C@H](Oc1nc2c(F)c(-c3cccc4cccc(C#N)c34)c(Cl)cc2c2c1ncn2[C@H]1CCN(C(=O)c2nc[nH]n2)[C@H](CC#N)C1)[C@@H]1CCCN1C [Example 41, 8-(8-chloro-1-((2S,4S)-2-(cyanomethyl)-1-(1H-1,2,4-triazole-3-carbonyl)piperidin-4-yl)-6-fluoro-4-((S)-1-((S)-1-methylpyrrolidin-2-yl)ethoxy)-1H-imidazo[4,5-c]quinolin-7-yl)-1-naphthonitrile] | 100 to 1000 | ≤ 100 |
| CCc1nc2c(OC[C@@]34CCCN3C[C@H](F)C4)nc3c(F)c(-c4c[nH]c5ccc(C)cc45)c(CCC#N)cc3c2n1C1C2CNC1C2 (stereo partly drawn) [Example 28, 3-(1-(2-azabicyclo[2.1.1]hexan-5-yl)-2-ethyl-6-fluoro-4-(((2R,7aS)-2-fluorotetrahydro-1H-pyrrolizin-7a(5H)-yl)methoxy)-7-(5-methyl-1H-indol-3-yl)-1H-imidazo[4,5-c]quinolin-8-yl)propanenitrile] | ≤ 100 | 100 to 1000 |
| CCc1nc2c(-c3ccnc(N4CCN(C)CC4)c3)nc3c(F)c(-c4cc(O)cc5ccccc45)c(CCC#N)cc3c2n1C1C2CNC1C2 (single isomer, unassigned) [Example 22a, 3-(1-((endo)-2-Azabicyclo[2.1.1]hexan-5-yl)-2-ethyl-6-fluoro-7-(3-hydroxynaphthalen-1-yl)-4-(2-(4-methylpiperazin-1-yl)pyridin-4-yl)-1H-imidazo[4,5-c]quinolin-8-yl)propanenitrile] | ≤ 100 | 100 to 1000 |
| CN(C)C(=O)CCc1nc2c(N3CC(N(C)C)C3)nc3c(-c4cccc(C#N)c4)c(-c4cc(O)cc5ccccc45)c(CCC#N)cc3c2n1[C@@H]1[C@@H]2CN[C@H]1C2 (relative stereo) [Example 12, 3-(1-((endo)-2-azabicyclo[2.1.1]hexan-5-yl)-8-(2-cyanoethyl)-6-(3-cyanophenyl)-4-(3-(dimethylamino)azetidin-1-yl)-7-(3-hydroxynaphthalen-1-yl)-1H-imidazo[4,5-c]quinolin-2-yl)-N,N-dimethylpropanamide] | 100 to 1000 | 5000 to 10000 |
| C[C@H](Oc1nc2c(F)c(-c3cccc4cccc(C#N)c34)c(Cl)cc2c2c1ncn2[C@H]1CCN(C(=O)CC#N)[C@H](CC#N)C1)[C@@H]1CCCN1C [Example 40, 8-(8-chloro-1-((2S,4S)-1-(2-cyanoacetyl)-2-(cyanomethyl)piperidin-4-yl)-6-fluoro-4-((S)-1-((S)-1-methylpyrrolidin-2-yl)ethoxy)-1H-imidazo[4,5-c]quinolin-7-yl)-1-naphthonitrile] | ≤ 100 | ≤ 100 |
| CN(C)C(=O)CCc1nc2c(N3CC(N(C)C)C3)nc3c(F)c(-c4cc(O)cc5ccccc45)cc(CO)c3c2n1[C@@H]1[C@@H]2CN[C@H]1C2 (relative stereo) [Example 15, 3-(1-((endo)2-azabicyclo[2.1.1]hexan-5-yl)-4-(3-(dimethylamino)azetidin-1-yl)-6-fluoro-9-(hydroxymethyl)-7-(3-hydroxynaphthalen-1-yl)-1H-imidazo[4,5-c]quinolin-2-yl)-N,N-dimethylpropanamide] | ≤ 100 | 1000 to 5000 |

Further lines, results first:

| IC50 (KRAS G12D) [nM] | IC50 (KRAS G12V) [nM] | SMILES |
| --- | --- | --- |
| 100 to 1000 | 5000 to 10000 | CN(C)C(=O)CCc1nc2c(N3CC(N(C)C)C3)nc3c(F)c(-c4nc(N)cc5ccccc45)c(CCC#N)cc3c2n1C1C2CNC1C2 (single isomer, unassigned) [Example 31a, 3-(7-(3-aminoisoquinolin-1-yl)-1-endo-(2-azabicyclo[2.1.1]hexan-5-yl)-8-(2-cyanoethyl)-4-(3-(dimethylamino)azetidin-1-yl)-6-fluoro-1H-imidazo[4,5-c]quinolin-2-yl)-N,N-dimethylpropanamide] |
| ≤ 100 | 100 to 1000 | CCc1nc2c(N3CC(N(C)C)C3)nc3c(F)c(-c4cc(O)cc5ccccc45)c(C(CC#N)n4cc(CO)cn4)cc3c2n1C1C2CNC1C2 (single isomer, unassigned) [Example 8b, 3-(1-((endo)-2-azabicyclo[2.1.1]hexan-5-yl)-4-(3-(dimethylamino)azetidin-1-yl)-2-ethyl-6-fluoro-7-(3-hydroxynaphthalen-1-yl)-1H-imidazo[4,5-c]quinolin-8-yl)-3-(4-(hydroxymethyl)-1H-pyrazol-1-yl)propanenitrile] |
| ≤ 100 | ≤ 100 | CN(C)C1CN(c2nc3c(F)c(-c4cc(O)cc5ccccc45)c(CCC#N)cc3c3c2nc(-c2cn(C4CCNCC4)nn2)n3C2C3CNC2C3)C1 (single isomer, unassigned) [Example 26a, 3-(1-((endo)-2-Azabicyclo[2.1.1]hexan-5-yl)-4-(3-(dimethylamino)azetidin-1-yl)-6-fluoro-7-(3-hydroxynaphthalen-1-yl)-2-(1-(piperidin-4-yl)-1H-1,2,3-triazol-4-yl)-1H-imidazo[4,5-c]quinolin-8-yl)propanenitrile] |
| ≤ 100 | 1000 to 5000 | Cc1cc2c(nc(N3CC(N(C)C)C3)c3nc(CCC(=O)N4CCN(c5ncccn5)CC4)n(C4C5CNC4C5)c32)c(F)c1-c1cc(O)cc2ccccc12 (single isomer, unassigned) [Example 2a, 3-(1-((endo)-2-azabicyclo[2.1.1]hexan-5-yl)-4-(3-(dimethylamino)azetidin-1-yl)-6-fluoro-7-(3-hydroxynaphthalen-1-yl)-8-methyl-1H-imidazo[4,5-c]quinolin-2-yl)-1-(4-(pyrimidin-2-yl)piperazin-1-yl)propan-1-one] |
| 100 to 1000 | 5000 to 10000 | CNCCc1nc2c(N3CC(N(C)C)C3)nc3c(F)c(-c4cc(O)cc5ccccc45)c(Cc4ccc(C#N)cc4)cc3c2n1[C@@H]1[C@@H]2CN[C@H]1C2 (relative stereo) [Example 29, 4-((1-((endo)-2-azabicyclo[2.1.1]hexan-5-yl)-4-(3-(dimethylamino)azetidin-1-yl)-6-fluoro-7-(3-hydroxynaphthalen-1-yl)-2-(2-(methylamino)ethyl)-1H-imidazo[4,5-c]quinolin-8-yl)methyl)benzonitrile] |
| ≤ 100 | ≤ 100 | CN(C)C1CN(c2nc3c(F)c(-c4cc(O)cc5ccccc45)c(CCC#N)cc3c3c2nc(CN2CCCC2=O)n3C2C3CNC2C3)C1 (single isomer, unassigned) [Example 5a, 3-(1-((endo)-2-azabicyclo[2.1.1]hexan-5-yl)-4-(3-(dimethylamino)azetidin-1-yl)-6-fluoro-7-(3-hydroxynaphthalen-1-yl)-2-((2-oxopyrrolidin-1-yl)methyl)-1H-imidazo[4,5-c]quinolin-8-yl)propanenitrile] |
| ≤ 100 | ≤ 100 | CN(C)C1CN(c2nc3c(F)c(-c4cc(O)cc5ccccc45)c(CCC#N)cc3c3c2nc(CCC(=O)N2CC4(CCOCC4)C2)n3C2C3CNC2C3)C1 (single isomer, unassigned) [Example 3a, 3-(1-((endo)-2-azabicyclo[2.1.1]hexan-5-yl)-4-(3-(dimethylamino)azetidin-1-yl)-6-fluoro-7-(3-hydroxynaphthalen-1-yl)-2-(3-oxo-3-(7-oxa-2-azaspiro[3.5]nonan-2-yl)propyl)-1H-imidazo[4,5-c]quinolin-8-yl)propanenitrile] |
| 100 to 1000 | – | CC(=O)N1CCCC(c2nc3c(N4CC(N(C)C)C4)nc4c(F)c(-c5cc(O)cc6ccccc56)c(C)cc4c3n2C2C3CNC2C3)C1 (single isomer, unassigned) [Example 1a, 1-(3-(1-((endo)-2-azabicyclo[2.1.1]hexan-5-yl)-4-(3-(dimethylamino)azetidin-1-yl)-6-fluoro-7-(3-hydroxynaphthalen-1-yl)-8-methyl-1H-imidazo[4,5-c]quinolin-2-yl)piperidin-1-yl)ethan-1-one] |
